Data published in ChEMBL document CHEMBL5032530, “Discovery of Benzocyclic Sulfone Derivatives as Potent CXCR2 Antagonists for Cancer Immunotherapy” (J Med Chem, 2021).
Activity calls are given as the source filed them. The calls are words filed in the database; no cut-off is given here.

Tests used:
[1] = molecular target: T1, C-X-C chemokine receptor type 2 (Homo sapiens, UniProt P25025); test: Antagonist activity at human CXCR2 expressed in HEK293 cells assessed as inhibition of CXCL8-induced beta-arrestin recruitment preincubated for 30 mins followed by addition of agonist incubated for 90 mins by beta arrestin assay; format: functional, cell-based
T1 sequence (P25025 whole entry): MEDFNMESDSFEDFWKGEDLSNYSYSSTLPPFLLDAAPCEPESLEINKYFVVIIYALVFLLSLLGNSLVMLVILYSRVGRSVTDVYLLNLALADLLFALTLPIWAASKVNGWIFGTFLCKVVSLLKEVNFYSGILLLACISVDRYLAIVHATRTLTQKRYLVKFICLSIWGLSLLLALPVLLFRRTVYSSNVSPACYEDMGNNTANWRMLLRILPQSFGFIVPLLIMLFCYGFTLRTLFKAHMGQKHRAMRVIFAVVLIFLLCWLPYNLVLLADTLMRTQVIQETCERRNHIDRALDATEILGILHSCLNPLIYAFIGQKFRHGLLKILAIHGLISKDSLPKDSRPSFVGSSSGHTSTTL

[2] = test system: Panc02; test: Antitumour activity against mouse Panc02 cells xenografted in mouse assessed as tumour growth inhibition at 3 mg/kg, po bid […]; format: functional; conditions: read-out: TGI
[3] = test system: Panc02; test: Antitumour activity against mouse Panc02 cells xenografted in mouse assessed as change in CD11b expressing immune cells infiltration into tumor tissue using LY6C antibody at 10 mg/kg, po bid measured after 15 days by flow cytometry analysis (reference value: 20.5%); format: functional; conditions: time 15 day
[4] = test system: MIA PaCa-2; test: Cytotoxicity against human MIA PaCa-2 cells assessed as reduction in cell viability measured after 72 hrs by CCK8 assay; format: cell-based; conditions: MIA PaCa-2, 72 h
[5] = Cmax in ICR mouse at 3 mg/kg, iv measured upto 48 hrs; format: ADME, organism-based; design: route intravenous, dose 3 mg/kg, time <=48; conditions: in vivo
[6] = AUC (0 to infinity) in ICR mouse at 30 mg/kg, po measured upto 48 hrs; format: ADME, organism-based; design: route oral, dose 30 mg/kg, time <=48; conditions: in vivo
[7] = Half life in ICR mouse at 30 mg/kg, po measured upto 48 hrs; format: ADME, organism-based; conditions: in vivo
[8] = Clearance in ICR mouse at 30 mg/kg, po measured upto 48 hrs; format: ADME, organism-based; conditions: in vivo
[9] = test system: PANC-1; test: Cytotoxicity against human PanC-1 cells assessed as reduction in cell viability measured after 72 hrs by CCK8 assay; format: cell-based; conditions: PANC-1, 72 h
[10] = test system: Panc02; test: Antitumour activity against mouse Panc02 cells xenografted in mouse assessed as reduction in infiltration of granulocytic MDSCs into tumor tissue at 3 mg/kg, po bid measured after 15 days by flow cytometry analysis; format: functional, organism-based; conditions: time 15.0 day
[11] = test system: Panc02; test: Antitumour activity against mouse Panc02 cells xenografted in mouse assessed as change in Gr1 expressing immune cells infiltration into tumor tissue at 10 mg/kg, po bid measured after 15 days by flow cytometry analysis (reference value: 27.4%); format: functional; conditions: time 15 day
[12] = test system: Panc02; test: Antitumour activity against mouse Panc02 cells xenografted in mouse assessed as tumour growth inhibition at 10 mg/kg, po bid […]; format: functional; conditions: read-out: TGI
[13] = test system: Panc02; test: Antitumour activity against mouse Panc02 cells xenografted in mouse assessed as reduction in infiltration of neutrophils into tumor tissue at 30 mg/kg, po bid measured after 15 days by immunohistochemical analysis; format: functional, organism-based; conditions: time 15.0 day
[14] = test system: Panc02; test: Cytotoxicity against mouse Panc02 cells assessed as reduction in cell viability measured after 72 hrs by CCK8 assay; format: cell-based; conditions: panc02, 72 h
[15] = molecular target: T1, C-X-C chemokine receptor type 2; test: Displacement of [I-125]-interleukin-8 against human recombinant CXCR2 expressed in CHO-K1 cells incubated for 60 mins by radio ligand binding assay; format: cell-based
[16] = Tmax in ICR mouse at 30 mg/kg, po measured upto 48 hrs; format: ADME, organism-based; conditions: in vivo
[17] = test system: Neutrophil; test: In vivo antagonist activity at CXCR2 in carrageenan-induced C57BL/6 mouse air pouch inflammation model assessed as reduction in neutrophil infiltration into air pouch at 30 mg/kg, po bid administered after 3 days of carrageenan treatment for 3 days; format: functional, organism-based; conditions: time 3.0 day
[18] = test system: Panc02; test: Antitumour activity against mouse Panc02 cells xenografted in mouse assessed as change in CD11b expressing immune cells infiltration into tumor tissue using LY6G antibody at 10 mg/kg, po bid measured after 15 days by flow cytometry analysis (reference value: 29.7%); format: functional; conditions: time 15 day
[19] = test system: Panc02; test: Antitumour activity against mouse Panc02 cells xenografted in mouse assessed as change in CD45 expressing immune cells infiltration into tumor tissue at 3 mg/kg, po bid measured after 15 days by flow cytometry analysis (reference value: 2.3%); format: functional; conditions: time 15 day
[20] = Cmax in ICR mouse at 30 mg/kg, po measured upto 48 hrs; format: ADME, organism-based; design: route oral, dose 30 mg/kg, time <=48; conditions: in vivo
[21] = test system: Panc02; test: Antitumour activity against mouse Panc02 cells xenografted in mouse assessed as change in CD11b expressing immune cells infiltration into tumor tissue using LY6C antibody at 3 mg/kg, po bid measured after 15 days by flow cytometry analysis (reference value: 20.5%); format: functional; conditions: time 15 day
[22] = test system: Mus musculus; test: Effect on granulocytic MDSCs level in mouse xenografted with […] cells at 10 to 30 mg/kg, po bid measured after 15 days by immunohistochemical analysis; format: ADME, organism-based; conditions: in vivo, 360 h, dose 10-30 mg/kg, time 15 day
[23] = Oral bioavailability in ICR mouse at 30 mg/kg measured upto 48 hrs; format: ADME, organism-based; conditions: in vivo
[24] = test system: Panc02; test: Antitumour activity against mouse Panc02 cells xenografted in mouse assessed as reduction in infiltration of neutrophils into tumor tissue at 3 mg/kg, po bid measured after 15 days by flow cytometry analysis; format: functional, organism-based; conditions: time 15.0 day
[25] = Tmax in ICR mouse at 3 mg/kg, iv measured upto 48 hrs; format: ADME, organism-based; conditions: in vivo
[26] = Cytotoxicity against human PBMC cells assessed as reduction in cell viability measured after 72 hrs by CCK8 assay; format: cell-based
[27] = test system: Panc02; test: Antitumour activity against mouse Panc02 cells xenografted in mouse assessed as change in CD11b expressing immune cells infiltration into tumor tissue using LY6G antibody at 3 mg/kg, po bid measured after 15 days by flow cytometry analysis (reference value: 29.7%); format: functional; conditions: time 15 day
[28] = test system: Panc02; test: Antitumour activity against mouse Panc02 cells xenografted in mouse assessed as change in CD45 expressing immune cells infiltration into tumor tissue at 3 mg/kg, po bid measured after 15 days by flow cytometry analysis (reference value: 27.4%); format: functional; conditions: time 15 day
[29] = Apparent volume of distribution in ICR mouse at 3 mg/kg, iv measured upto 48 hrs; format: ADME, organism-based; conditions: in vivo, read-out: Vz
[30] = test system: Panc02; test: Antitumour activity against mouse Panc02 cells xenografted in mouse assessed as change in CD45 expressing immune cells infiltration into tumor tissue at 10 mg/kg, po bid measured after 15 days by flow cytometry analysis (reference value: 2.3%); format: functional; conditions: time 15 day
[31] = Clearance in ICR mouse at 3 mg/kg, iv measured upto 48 hrs; format: ADME, organism-based; conditions: in vivo
[32] = Half life in ICR mouse at 3 mg/kg, iv measured upto 48 hrs; format: ADME, organism-based; conditions: in vivo
[33] = test system: BXPC-3; test: Cytotoxicity against human BxPC3 cells assessed as reduction in cell viability measured after 72 hrs by CCK8 assay; format: cell-based; conditions: BXPC-3, 72 h
[34] = AUC (0 to infinity) in ICR mouse at 3 mg/kg, iv measured upto 48 hrs; format: ADME, organism-based; design: route intravenous, dose 3 mg/kg, time <=48; conditions: in vivo
[35] = AUC (0 to t) in ICR mouse at 30 mg/kg, po measured upto 48 hrs; format: ADME, organism-based; design: route oral, dose 30 mg/kg, time <=48; conditions: in vivo
[36] = test system: Panc02; test: Antitumour activity against mouse Panc02 cells xenografted in mouse assessed as upregulation of infiltration of CD3+ T cell into tumor tissue treated po twice a day measured after 15 days by immunohistochemical analysis; format: functional, organism-based; conditions: dose 10-30 mg/kg, time 15.0 day
[37] = test system: SW1990; test: Cytotoxicity against human SW1990 cells assessed as reduction in cell viability measured after 72 hrs by CCK8 assay; format: cell-based; conditions: SW1990, 72 h
[38] = test system: Panc02; test: Antitumour activity against mouse Panc02 cells xenografted in mouse assessed as reduction in infiltration of granulocytic MDSCs into tumor tissue at 30 mg/kg, po bid measured after 15 days by immunohistochemical analysis; format: functional, organism-based; conditions: time 15.0 day
[39] = AUC (0 to t) in ICR mouse at 3 mg/kg, iv measured upto 48 hrs; format: ADME, organism-based; design: route intravenous, dose 3 mg/kg, time <=48; conditions: in vivo
[40] = Apparent volume of distribution in ICR mouse at 30 mg/kg, po measured upto 48 hrs; format: ADME, organism-based; conditions: in vivo
[41] = test system: Neutrophil; test: In vivo antagonist activity at CXCR2 in carrageenan-induced C57BL/6 mouse air pouch inflammation model assessed as reduction in neutrophil infiltration into air pouch at 10 mg/kg, po bid administered after 3 days of carrageenan treatment for 3 days; format: functional, organism-based; conditions: time 3.0 day

Cc1c(Cl)cccc1NC(=O)Nc1ccc2c(c1O)S(=O)(=O)CC=C2
IC50 [1]: 1640 nM

O=C(Nc1ccc2c(c1O)S(=O)(=O)CC=C2)Nc1cccc(F)c1Cl
IC50 [1]: 19000 nM

O=C(Nc1ccc2c(c1O)S(=O)(=O)CCC2)Nc1cccc(F)c1Cl
IC50 [1]: 43 nM

O=C(Nc1ccccc1F)Nc1ccc2c(c1O)S(=O)(=O)CC=C2
IC50 [1]: 320 nM

O=c1c(Nc2ccccc2Cl)c(Nc2ccc3c(c2O)S(=O)(=O)CC=C3)c1=O
IC50 [1]: 200 nM

Cc1c(F)cccc1Nc1c(Nc2ccc3c(c2O)S(=O)(=O)CCC3)c(=O)c1=O
IC50 [1]: 1360 nM

Cc1c(F)cccc1Nc1c(Nc2ccc3c(c2O)S(=O)(=O)CC=C3)c(=O)c1=O
IC50 [1]: 370 nM

O=c1c(Nc2ccc3c(c2O)S(=O)(=O)CC=C3)c(Nc2cccc(F)c2Cl)c1=O
IC50 [1]: 700 nM

O=c1c(Nc2ccccc2Cl)c(Nc2ccc3c(c2O)S(=O)(=O)CCC3)c1=O
IC50 [1]: 1050 nM

Cc1c(F)cccc1NC(=O)Nc1ccc2c(c1O)S(=O)(=O)CC=C2
inhibition in vivo at 3 mg/kg [2]: 58.2%
Activity [3]: 17.8%
IC50 [4]: > 10000 nM
Cmax [5]: 5120 ng/mL
IC50 [1]: 34 nM
AUC(0-inf) ([6]; ICR): 3570 ng·h/mL
half-life ([7]; ICR): 3.83 h
CL/F ([8]; ICR): 143 mL/min/kg
IC50 [9]: > 10000 nM
Activity [10]: Active
Activity [11]: 7.6%
inhibition in vivo at 10 mg/kg [12]: 66.7%
Activity [13]: Active
Activity [14]: Non-Toxic
Ki [15]: 440 nM
Tmax [16]: 3.42 h
Activity [17]: Active
Activity [18]: 8.11%
Activity [19]: 34.9%
Cmax [20]: 419 ng/mL
Activity [21]: 15%
Activity [22]: Non-Toxic
bioavailability [23]: 23.2%
Activity [24]: Active
Tmax [25]: 3 min
IC50 [26]: > 10000 nM
Activity [27]: 15.8%
Activity [28]: 12.7%
Vd [29]: 9.82 L/kg
Activity [30]: 40.2%
clearance [31]: 32.8 mL/min/kg
half-life [32]: 3.39 h
IC50 [33]: > 10000 nM
AUC(0-inf) [34]: 1550 ng·h/mL
AUC(0-t) at 48 h [35]: 3510 ng·h/mL
Activity [36]: Dose-Dependent Effect
IC50 [37]: > 10000 nM
Activity [38]: Active
AUC(0-t) at 48 h [39]: 1510 ng·h/mL
Vz [40]: 47.39 L/kg

Cc1ccc(NC(=O)Nc2ccc3c(c2O)S(=O)(=O)CC=C3)cc1
IC50 [1]: 190 nM

Cc1ccc(NC(=O)Nc2ccc3c(c2O)S(=O)(=O)CCC3)cc1
IC50 [1]: 1320 nM

O=C(Nc1ccc2c(c1O)S(=O)(=O)CCC2)Nc1cccc(Cl)c1Cl
IC50 [1]: 210 nM

O=C(Nc1ccc(Cl)cc1Cl)Nc1ccc2c(c1O)S(=O)(=O)CCC2
IC50 [1]: > 10000 nM

Cc1c(Cl)cccc1NC(=O)Nc1ccc2c(c1O)S(=O)(=O)CCC2
IC50 [1]: 2430 nM

NS(=O)(=O)c1c(Cl)ccc(NC(=O)Nc2cccc(Cl)c2Cl)c1O
Cmax [5]: 8350 ng/mL
IC50 [1]: 13 nM
AUC ([6]; 48 h): 11072.08 ng·h/mL
t1/2 ([7]; 30 mg/kg, 48 h): 3.59 h
CL ([8]; 30 mg/kg, 48 h): 453.5 mL/min/kg
Tmax [16]: 0.3 h
Cmax [20]: 3810 ng/mL
bioavailability [23]: 35%
Tmax [25]: 3.6 min
Vd [29]: 5.07 L/kg
clearance [31]: 16.3 mL/min/kg
half-life [32]: 3.6 h
AUC(0-inf) [34]: 3160 ng·h/mL
AUC(0-t) at 48 h [35]: 11100 ng·h/mL
AUC(0-t) at 48 h [39]: 3160 ng·h/mL
Vz [40]: 14.09 L/kg
Activity [41]: Active

O=C(Nc1ccccc1F)Nc1ccc2c(c1O)S(=O)(=O)CCC2
IC50 [1]: 1020 nM
